Twelve compounds from patent publication US4992442A, “Pyrrolo(3,2-e)pyrazolo(1,5-a)pyrimidine derivative and medicine comprising the same” (Pola Chemical Industries Inc., Japan, priority 1988, dated 1991) can be followed below.

A value given as a limit tells only on which side of the number the result lay.

For series [1], the system named is basilar artery. The experiment in a line: Vasodilative activity, Magnus method, dog basilar artery contracted with PGF2 α. To be noted: Canis lupus familiaris; PGF2 α 5×10^-6 M; read-out: 50% Contraction-inhibitive Concentrations, Basilar Artery, PGF2 α. How it is done: (§1) A bastard, male, adult dog weighing about 8-10 kg was anesthetized with pentobarbital sodium (25 mg/kg, i.v.) and killed by bleeding. Its basilar and coronary arteries were immediately extracted. […] Static tensions of the ring were isometrically measured and recorded.
(§2) Test compounds were accumulatively given to specimens contracted with 1×10^-7 M (final concentration) U-46619 to the final concentration of 1×10^-7 to 1×10^-4 M to investigate their vasodilative activities.
(§3) The vasodilative activity and coronary blood flow increase activity were respectively measured according to the following Methods 1 and 2.
(§4) The same Magnus method was used as in Experimental Example 1, except that instead of 1×10^-7 M (final concentration) U-46619, 5×10^-6 M (final concentration), PGF2 α or 60 mM potassium chloride was used.

Series [2] relates to basilar artery. The experiment in a line: Vasodilative activity, Magnus method, dog basilar artery contracted with potassium chloride. The conditions noted are these: Canis lupus familiaris; 60 mM potassium chloride; read-out: 50% Contraction-inhibitive Concentrations, Basilar Artery, KCl. How it is done: as §1, §2, §3, §4
Series [3] deals with coronary artery. The experiment in a line: Vasodilative activity, Magnus method, dog coronary artery contracted with PGF2 α. The conditions noted are these: Canis lupus familiaris; PGF2 α 5×10^-6 M; read-out: 50% Contraction-inhibitive Concentrations, Coronary Artery, PGF2 α. How it is done:
as §1, §2, §3, §4

The subject of series [4] is coronary artery. The series is described as follows: Vasodilative activity, Magnus method, dog coronary artery contracted with potassium chloride. The conditions noted are these: Canis lupus familiaris; 60 mM potassium chloride; read-out: 50% Contraction-inhibitive Concentrations, Coronary Artery, KCl. On the procedure: as §1, §2, §3, §4
Series [5] deals with trachea. The series is described as follows: Tracheal expansion activity against acetyl choline (ACh) induced tracheal contraction. Further details: species or system Hartley guinea pig. To be noted: for IC50: Cavia porcellus, ACh 1×10^-6 M, read-out: 50% Contraction-inhibitive Concentration, ACh Contraction; for Ratio of Effectiveness, ACh Contraction: reverse ratio of 50% contraction-inhibitive concentration to that of theophylline.
Source text: (§6) Tracheal expansion activity against tracheal contraction induced by acetyl choline (ACh) and histamine (His)
(§7) A Hartley guinea pigs (male, weight: 400-500 g) was killed by bleeding and its trachea was immediately extracted. […] Static tensions was isometrically measured.

The test system of series [6] is trachea. The experiment in a line: Tracheal expansion activity against histamine (His) induced tracheal contraction. Further details: species or system Hartley guinea pig. To be noted: for IC50: Cavia porcellus, His 1×10^-6 M, read-out: 50% Contraction-inhibitive Concentration, His Contraction; for Ratio of Effectiveness, His Contraction: reverse ratio of 50% contraction-inhibitive concentration to that of theophylline.
Source text: as §6, §7

Series [7] can be described thus: Acute toxicity test, oral, mice. The conditions noted are these: mouse, in vivo, ICR male mice, 14 days observation. How it is done:
An acute toxicity test on compounds of the present invention was performed according to the following method.
ICR male mice were purchased at 4 weeks of age and fed for 10 days before testing. The test compound suspended in 1% methylcellullose solution was orally administered using a metallic gaster probe at a dose of 0.1 ml (as the test compound) per […] of body weight. The mice were fasted for 15 hours before the administration. Observation was made for 14 days after the administration, and the LD50 value was determined from the survival rate by the Richfield Wilcoxin method.

Another series has as its system coronary blood flow. The series is described as follows: Coronary blood flow increase activity in anesthetized dog. To be noted: maximum flow relative to before administration. It is filed as in vivo.
Source text: as §3
The heart was exposed by an incision into pericardium through the left quartus costa rib. About 1 cm of a coronary vessel was peeled off from the surrounding tissues at about 1 cm from the left ramus circumplexus and a blood flow meter probe was installed for measuring the coronary blood flow. Left ventricle pressure, heart rate, right femoral artery pressure, and lower extremity blood flow rate were monitored. All test compounds were intravenously administered.
The maximum coronary blood flow rates achieved after the administration as a percentage of the blood flow before administration was taken as the coronary blood flow increase activity.

The test system of series [8] is basilar artery. The experiment in a line: Vasodilative activity, Magnus method, dog basilar artery ring contracted with U-46619. The conditions noted are these: for IC50: Canis lupus familiaris, U-46619 1×10^-7 M, read-out: 50% Contraction-inhibitive Concentrations; for vasodilative activity, times stronger than trapidil: U-46619, relative to trapidil. How it is done:
(§5) Vasodilative activity of the compound of the present invention was measured by the Magnus method.
as §1, §2

The test system of series [9] is coronary artery. The series is described as follows: Vasodilative activity, Magnus method, dog coronary artery ring contracted with U-46619. The conditions noted are these: for IC50: Canis lupus familiaris, U-46619 1×10^-7 M, read-out: 50% Contraction-inhibitive Concentrations; for vasodilative activity, times stronger than trapidil: U-46619, relative to trapidil. On the procedure:
as §5, §1, §2

Consider `CCCCCCN1CCc2c(C)nc3c(C#N)cnn3c21` [Compound No. 7, 3-cyano-6,7-dihydro-8-hexyl-5-methyl-8H-pyrrolo [3,2-e]pyrazolo[1,5-a]pyrimidine], for which the IC50 in the series with basilar artery [1] is more than 100 µM; in the series with basilar artery [2], 85 µM; in the series on coronary artery [3], more than 100 µM; in the series with coronary artery [4] it was more than 100 µM; in the series on trachea [5], 6.3 µM; in the series with trachea [6], 13 µM. Moreover, the “Ratio of Effectiveness, ACh Contraction” value in the series with trachea [5] was found to be 0.8. Besides, the “Ratio of Effectiveness, His Contraction” value in the series with trachea [6] is 0.5. The compound also came in with an LD50 at 336 h in series [7] not below 1000 mg/kg.
On to `Cc1nc2c(C#N)cnn2c2c1CCN2CC(C)C` [Compound No. 4, 8-iso-butyl-3-cyano-6,7-dihydro-5-methyl-8H-pyrrolo [3,2-e]pyrazolo[1,5-a]pyrimidine], for which the IC50 in the series with basilar artery [1] is more than 100 µM; in the series on basilar artery [2], 43 µM; in the series on coronary artery [3] it was 25 µM; with coronary artery [4] it was 100 µM. The “Rate of Coronary Blood Flow Increase, 50 μg/kg (iv)” value in the series with coronary blood flow amounted to 20.4 ± 6.3%. The “Rate of Coronary Blood Flow Increase, 100 μg/kg (iv)” value in the series on coronary blood flow worked out at 52.8 ± 21.1%. For the same compound, the LD50 at 336 h in [7] was not below 1000 mg/kg.
For the compound `Cc1nc2c(C#N)cnn2c2c1CCN2C1CCCC1` [Compound No. 8, 3-cyano-8-cyclopentyl-6,7-dihydro-5-methyl-8H-pyrrolo [3,2-e]pyrazolo[1,5-a]pyrimidine], the IC50 was more than 100 µM with basilar artery [1]; more than 100 µM in the series on basilar artery [2]; 0.2 µM with coronary artery [3]; more than 100 µM with coronary artery [4]; 0.13 µM with trachea [5]; 1 µM in the series with trachea [6]. The “Ratio of Effectiveness, ACh Contraction” value in the series on trachea [5] came out at 38.5. Moreover, in the series with trachea [6], the “Ratio of Effectiveness, His Contraction” value is on record as 6.3. The compound further gave an LD50 at 336 h in series [7] not below 1000 mg/kg.
`Cc1nc2c(C#N)cnn2c2c1CCN2N1CCOCC1` [Compound No. 10, 3-cyano-6,7-dihydro-5-methyl-8-(4-morpholyl)-8H-pyrrolo[3,2-e]yrazolo[1,5-a]pyrimidine]: the IC50 in the series on basilar artery [1] is more than 100 µM; in the series on basilar artery [2], more than 100 µM; in the series on coronary artery [3], more than 100 µM; with coronary artery [4], more than 100 µM; in the series on trachea [5] it was 1.3 µM; in the series with trachea [6], 5 µM. The “Ratio of Effectiveness, ACh Contraction” value in the series with trachea [5] was determined as 3.9. In the series on trachea [6], the “Ratio of Effectiveness, His Contraction” value was found to be 1.3. In addition, the LD50 at 336 h in [7] was not below 1000 mg/kg.
Turning to `CCCCCN1CCc2c(C)nc3c(C#N)cnn3c21` [Compound No. 6, 3-cyano-6,7-dihydro-5-methyl-8-pentyl-8H-pyrrolo [3,2-e]pyrazolo[1,5-a]pyrimidine], the IC50 in the series on basilar artery [1] is more than 100 µM; in the series with basilar artery [2], more than 100 µM; in the series on coronary artery [3], more than 100 µM; in the series with coronary artery [4], more than 100 µM; with trachea [5] it was 3.2 µM; in the series with trachea [6], 16 µM. Further, the “Rate of Coronary Blood Flow Increase, 50 μg/kg (iv)” value in the series on coronary blood flow amounted to 7.3 ± 3.1%. In the series on coronary blood flow, the “Rate of Coronary Blood Flow Increase, 100 μg/kg (iv)” value was determined as 15.4 ± 5.7%. For the same compound, the “Ratio of Effectiveness, ACh Contraction” value with trachea [5] is 1.6. Further, the “Ratio of Effectiveness, His Contraction” value in the series on trachea [6] is given as 0.4. The compound also displayed an LD50 at 336 h in series [7] not below 1000 mg/kg.
With `CCCCN1CCc2c(C)nc3c(C#N)cnn3c21` [Compound No. 3, 8-butyl-3-cyano-6,7-dihydro-5-methyl-8H-pyrrolo [3,2-e]pyrazolo[1,5-a]pyrimidine], the IC50 in the series on basilar artery [1] was more than 100 µM; with basilar artery [2], 34 µM; in the series with coronary artery [3] it was more than 100 µM; in the series on coronary artery [4] it was more than 100 µM; in the series with trachea [6] it was 30 µM. Besides, the “Rate of Coronary Blood Flow Increase, 50 μg/kg (iv)” value with coronary blood flow is 11.5 ± 4.6%. Besides, the “Rate of Coronary Blood Flow Increase, 100 μg/kg (iv)” value with coronary blood flow turned out to be 37.9 ± 16.3%. The “Ratio of Effectiveness, His Contraction” value in the series on trachea [6] was 2.1. This compound displayed an LD50 at 336 h in [7] not below 1000 mg/kg.
For `Cc1nc2c(C#N)c(C)nn2c2c1CCN2C(C)(C)C` [Compound No. 2, 8-tert-butyl-3-cyano-6,7-dihydro-2,5-dimethyl-8H-pyrrolo[3,2-e]pyrazolo[1,5-a]pyrimidine], the figures for the IC50 in the series with basilar artery [8] and with coronary artery [9] were 2.7 µM and 1.8 µM, respectively. For the same compound, the “vasodilative activity, times stronger than trapidil” value in the series on basilar artery [8] was 37 times; in the series on coronary artery [9] it was 35 times. In series [7], the LD50 at 336 h is not below 2000 mg/kg.
`Cc1nc2ccnn2c2c1CCN2C(C)(C)C` [Compound No. 11, 8-tert-butyl-6,7-dihydro-5-methyl-8H-pyrrolo[3,2-e]pyrazolo[1,5-a]pyrimidine]: the IC50 was 7.9 µM in the series with basilar artery [1]; 10 µM with basilar artery [2]; 3.2 µM in the series with coronary artery [3]; 16 µM in the series on coronary artery [4]; 6.3 µM with trachea [6]. The “Ratio of Effectiveness, His Contraction” value with trachea [6] was 1.0. Also, the LD50 at 336 h in series [7] was not below 1000 mg/kg.
On to `Cc1nc2c(C#N)cnn2c2c1CCN2C(C)(C)C` [Compound No. 1, 8-tert-butyl-3-cyano-6,7-dihydro-5-methyl-8H-pyrrolo[3,2-e]pyrazolo[1,5-a]pyrimidine], for which the IC50 in the series with basilar artery [8] was 2.7 µM; in the series on coronary artery [9], 1.6 µM; in the series with basilar artery [1], 1.6 µM; in the series with basilar artery [2], more than 100 µM; in the series with coronary artery [3], 1.3 µM; in the series with coronary artery [4], more than 100 µM. The IC50 with trachea [5] was 0.2 µM; in the series on trachea [6] it was 1.3 µM. Also, the figures for the “vasodilative activity, times stronger than trapidil” value in the series with basilar artery [8] and with coronary artery [9] were 37 times and 39 times, respectively. In addition, the “Rate of Coronary Blood Flow Increase, 50 μg/kg (iv)” value with coronary blood flow was 51.9 ± 11.9%. Also, the “Rate of Coronary Blood Flow Increase, 100 μg/kg (iv)” value in the series with coronary blood flow is on record as 181.6 ± 27.8%. The “Ratio of Effectiveness, ACh Contraction” value with trachea [5] is on record as 25.0. In the series with trachea [6], the “Ratio of Effectiveness, His Contraction” value was determined as 4.9. In series [7], this compound gave an LD50 at 336 h not below 2000 mg/kg.
Take `Cc1nc2c(C#N)cnn2c2c1CCN2CC1CCCCC1` [Compound No. 9, 3-cyano-8-cyclohexylmethyl-6,7-dihydro-5-methyl-8H-pyrrolo[3,2-e]pyrazolo[1,5-a]pyrimidine]: the IC50 is more than 100 µM with basilar artery [1]; more than 100 µM in the series with basilar artery [2]; more than 100 µM with coronary artery [3]; more than 100 µM in the series on coronary artery [4]; 0.79 µM in the series with trachea [5]. Besides, the “Ratio of Effectiveness, ACh Contraction” value with trachea [5] is recorded as 6.3. For the same compound, in series [7], the LD50 at 336 h is not below 1000 mg/kg.
`CCC(C)N1CCc2c(C)nc3c(C#N)cnn3c21` (centres unmarked) [Compound No. 5, 8-sec-butyl-3-cyano-6,7-dihydro-5-methyl-8H-pyrrolo [3,2-e]pyrazolo[1,5-a]pyrimidine]: the IC50 in the series with basilar artery [1] is 2.5 µM; with basilar artery [2], more than 100 µM; in the series on coronary artery [3] it was 3.2 µM; with coronary artery [4] it was more than 100 µM; with trachea [5], 0.5 µM; with trachea [6], 0.4 µM. Besides, the “Rate of Coronary Blood Flow Increase, 50 μg/kg (iv)” value in the series with coronary blood flow stood at 8.2 ± 3.7%. In the series with coronary blood flow, the “Rate of Coronary Blood Flow Increase, 100 μg/kg (iv)” value came out at 27.3 ± 5.2%. Besides, in the series with trachea [5], the “Ratio of Effectiveness, ACh Contraction” value is given as 10.0. In the series with trachea [6], the “Ratio of Effectiveness, His Contraction” value turned out to be 15.8. Besides, the LD50 at 336 h in [7] was not below 1000 mg/kg.
For `Cn1c(=O)c2[nH]cnc2n(C)c1=O` [Theophylline, reference compound], the IC50 with trachea [5] amounted to 5 µM; with trachea [6] it was 6.3 µM.

Broadly, the LD50 is the dose expected to kill half of the subjects tested. A higher LD50 goes with a less toxic substance.
